“Also recorded” adds a separate entry of the source. Marks after values point to notes of the source that are not given here.
Tests used:
[1] = tested on: Sat-α repetitive sequences of HL-60 cells; experiment: Methylation status by qMSP, Sat-α; format: cell-based, human; settings: HL-60, 5 h
Protocol: (§1) Then, DNA was extracted similarly to previously described DNA fragmentation assay. After that, the DNA was converted with bisulphite (EZ DNA Methylation-Gold™ Kit, Zymo Research, Irvine, CA, USA). Bisulphite-modified DNA was used for fluorescence-based real-time quantitative Methylation-Specific PCR (qMSP) using 5 µM of each forward and reverse primer (Isogen Life Science BV, Utrecht, The Netherlands), 2 µL of iTaq™ Universal SYBR® Green Supermix (Bio-Rad Laboratories, Inc., Hercules, CA, USA); it contains antibody-mediated hot-start iTaq DNA polymerase, dNTPs, MgCl2, SYBR® Green I dye, enhancers, stabilizers and a blend of passive reference dyes including ROX and fluorescein) and 25 ng of bisulphite converted genomic DNA.
(§2) PCR conditions included initial denaturalisation at 95 °C for 3 min and amplification which consisted of 45 cycles at 95 °C for 10 s, 60 °C for 15 s and 72 °C for 15 s, taking picture at the end of each elongation cycle. After that, melting curve was determined increasing 0.5 °C each 0.05 s from 60 °C to 95 °C and taking pictures.
QMSP was carried out in 48 well plates in MiniOpticon Real-Time PCR System (MJ Mini Personal Thermal Cycler, Bio-Rad) and were analysed by Bio-Rad CFX Manager 3.1 Software. The housekeeping Alu-C4 was used as a reference to correct for total DNA input. […] Each sample was analysed in triplicate. […]

HL-60 cells [2] = experiment: Cytotoxicity assay, Trypan blue exclusion test; format: cell-based, human; settings: HL-60, 72 h
Protocol: Promyelocytic human leukaemia (HL-60) immortal cells originated from a person suffering myeloid leukaemia were grown as suspension cultures in RPMI-1640 medium ([…], Sigma-Aldrich, St. Louis, MO, USA) supplemented with 10% heat-inactivated foetal bovine serum (S01805, Linus, Madrid, Spain), L-glutamine 2 mM (G7513, Sigma-Aldrich, St. Louis, MO, USA) and 1× antibiotic-antimycotic solution from a 100× stock solution containing 10,000 units of penicillin, 10 mg of streptomycin and 25 μg of amphotericin B per mL ([…], Sigma-Aldrich, St. Louis, MO, USA). Cells were incubated at 37 °C in a 80% humidified atmosphere 5% CO2. Cultures were plated at 2.5 × 10^4 cells/mL density in 10 mL culture bottles and passed every 2 days. Trypan blue exclusion test was used to determine the cell viability exerted by the assayed compounds, according to our standard procedures. […] After culture, cells were stained with a 1:1 volume ratio of Trypan blue dye (T8154, Sigma-Aldrich, St. Louis, MO, USA) and counted in a Neubauer chamber at 100× magnification. The survival percentage of each treatment compared with the control was recorded in three independent replicates. Data are expressed as mean ± standard deviation of the mean (SEM).

[3] = tested on: LINE-1 repetitive sequences of HL-60 cells; experiment: Methylation status by qMSP, LINE-1; format: cell-based, human; settings: HL-60, 5 h
Protocol: as §1, §2
QMSP was carried out in 48 well plates in MiniOpticon Real-Time PCR System (MJ Mini Personal Thermal Cycler, Bio-Rad) and were analysed by Bio-Rad CFX Manager 3.1 Software. The housekeeping Alu-C4 was used as a reference to correct for total DNA input. Alu-C4 and the target repetitive elements Alu-M1, LINE-1 and Sat-α were obtained from Isogen Life Science (Utrecht, The Netherlands) and their sequences are shown in Table 4. Each sample was analysed in triplicate.
The results of each CT were obtained from each qMSP. Data were normalised with the housekeeping Alu C4 using the Nikolaidis et al. and Liloglou et al. comparative CT method (ΔΔCT). One-way ANOVA and post-hoc Tukey’s test are used to evaluate the differences between the tested compounds, repetitive elements and concentrations.

Drosophila melanogaster [4] = experiment: Antitoxicity assay, combined treatment with 0.15 M H2O2
Protocol: Toxicity was assayed according to our standard protocols. CRB and SFRB were tested at five concentrations: 1, 4, 8.12, 32.5 and 130 mg/mL and 0.16, 0.625, 1.25, 5 and 20 mg/mL, respectively. […] Tested groups consisted of larvae fed with Drosophila Instant Medium (Formula 4–24, Carolina Biological Supply, Burlington, NC, USA) supplemented with the assessed compounds concentrations. Emerging adults of all groups were counted and toxicity was determined as the percentage of hatched individuals in each treatment compared with the negative control.

HL-60 cells [5] = experiment: Internucleosomal DNA fragmentation; format: cell-based, human; settings: HL-60, 5 h, all tested concentrations
Protocol: DNA fragmentation induction was determined as described by Anter et al. (2014). […] After treatment, genomic DNA was extracted using a commercial kit (Blood Genomic DNA Extraction Mini Spin Kit, Canvax Biotech, Córdoba, Spain). Then, DNA was incubated overnight with RNase at 37 °C and quantified in a spectrophotometer (Nanodrop® ND-1000, NanoDrop Technologies, Inc., Wilmington, DE, USA). Finally, 1200 ng DNA were electrophoresed in a 2% agarose gel for 120 min at 50 V, stained with ethidium bromide and visualized under UV light. The apoptosis process is recognised by the appearance of internucleosomal DNA fragments that are multiple of 200 base pairs.

Drosophila melanogaster [6] = experiment: Antigenotoxicity, wing spot test, combined treatment with hydrogen peroxide; format: in vivo; design: key to Total Spots, statistical diagnosis (Kastenbaum-Bowman test): * (positive); Δ (negative); β (inconclusive) vs. respective positive control
Protocol: All inconclusive and positive results (p > 0.05) were analysed with the nonparametric U-test of Mann, Whitney and Wilcoxon (α = β = 0.05). Anter et al. described the antigenotoxicity method conducted in D. melanogaster. […] Single and twin spots per wing were also recorded and compared with the concurrent negative control as described before. Finally, the inhibition percentages (IP) for the combined treatments were calculated as described by Abraham: IP = [(genotoxin alone-combined treatment)/genotoxin alone] × 100.

[7] = GLU 11 mM + 0.15 M H2O2, No. of spots in parentheses
[8] = GLU 350 mM + 0.15 M H2O2, No. of spots in parentheses
[9] = TAU 1 mM + 0.15 M H2O2, No. of spots in parentheses
[10] = TAU 32 mM + 0.15 M H2O2, No. of spots in parentheses

OC[C@H]1OC(O)[C@H](O)[C@@H](O)[C@@H]1O (stereo partly drawn) [GLU, Glucose]
methylation status of satellite alpha sequences ([1]; 350 mM GLU): hypermethylated | IC50 (HL-60 cells [2]; Homo sapiens, mean ± SD in Figure 3, read-out: IC50 (inhibitory concentration 50)): 42.7 mM | methylation status of LINE elements ([3]; 11 mM GLU): hypomethylated | methylation status of LINE repetitive element ([3]; 350 mM GLU): reduced the methylation status | Survival (%) Combined Treatment (Drosophila melanogaster [4]; GLU 2.7 mM + 0.15 M hydrogen peroxide): 60% | Survival (%) Combined Treatment (Drosophila melanogaster [4]; GLU 11 mM + 0.15 M hydrogen peroxide): 84.35 * % | Survival (%) Combined Treatment (Drosophila melanogaster [4]; GLU 21.86 mM + 0.15 M hydrogen peroxide): 88.65 * % | Survival (%) Combined Treatment (Drosophila melanogaster [4]; GLU 87.5 mM + 0.15 M hydrogen peroxide): 79 * % | Survival (%) Combined Treatment (Drosophila melanogaster [4]; GLU 350 mM + 0.15 M hydrogen peroxide): 72 * % | internucleosomal DNA fragmentation (ladder pattern) (HL-60 cells [5]): did not induce DNA fragmentation | IP (%) inhibition percentage (Drosophila melanogaster [6]; GLU 11 mM + 0.15 M H2O2): 76.5% | Twin Spots m = 5 (Drosophila melanogaster [6]; GLU 11 mM + 0.15 M H2O2): 0 clones per wing | Large Simple Spots (>2 Cells) m = 5 (Drosophila melanogaster [6]; [7]): 0.025 (1) clones per wing | Small Single Spots (1–2 Cells) m = 2 (Drosophila melanogaster [6]; [7]): 0.075 (3) clones per wing | Total Spots m = 2 (Drosophila melanogaster [6]; [7]): 0.1 (4) clones per wing | Total Spots, statistical diagnosis (Kastenbaum-Bowman test) (Drosophila melanogaster [6]; GLU 11 mM + 0.15 M H2O2 vs positive control): * | IP (%) inhibition percentage (Drosophila melanogaster [6]; GLU 350 mM + 0.15 M H2O2): 52.9% | Twin Spots m = 5 (Drosophila melanogaster [6]; GLU 350 mM + 0.15 M H2O2): 0 clones per wing | Large Simple Spots (>2 Cells) m = 5 (Drosophila melanogaster [6]; [8]): 0.025 (1) clones per wing | Small Single Spots (1–2 Cells) m = 2 (Drosophila melanogaster [6]; [8]): 0.175 (7) clones per wing | Total Spots m = 2 (Drosophila melanogaster [6]; [8]): 0.2 (8) clones per wing | Total Spots, statistical diagnosis (Kastenbaum-Bowman test) (Drosophila melanogaster [6]; GLU 350 mM + 0.15 M H2O2 vs positive control): *

NCCS(=O)(=O)O [TAU, 2-aminoethanesulfonic acid]
methylation status of satellite alpha sequences ([1]; both tested concentrations of TAU): significantly hypermethylated | cell proliferation (HL-60 cells [2]; 2 mM TAU): induced a decrease of cell proliferation | cytotoxic activity (HL-60 cells [2]; any assayed concentration): did not show cytotoxic activity | IC50 (inhibitory concentration 50) (HL-60 cells [2]; mean ± SD in Figure 3): not found | methylation status of LINE-1 ([3]; TAU highest concentration (32 mM)): reduced this methylation status; also recorded: induced hypomethylation | Survival (%) Combined Treatment (Drosophila melanogaster [4]; TAU 0.25 mM + 0.15 M hydrogen peroxide): 40.76% | Survival (%) Combined Treatment (Drosophila melanogaster [4]; TAU 1 mM + 0.15 M hydrogen peroxide): 57.69 * % | Survival (%) Combined Treatment (Drosophila melanogaster [4]; TAU 2 mM + 0.15 M hydrogen peroxide): 56.9 * % | Survival (%) Combined Treatment (Drosophila melanogaster [4]; TAU 8 mM + 0.15 M hydrogen peroxide): 40% | Survival (%) Combined Treatment (Drosophila melanogaster [4]; TAU 32 mM + 0.15 M hydrogen peroxide): 42.3% | internucleosomal DNA fragmentation (ladder pattern) (HL-60 cells [5]): did not induce DNA fragmentation | IP (%) inhibition percentage (Drosophila melanogaster [6]; TAU 1 mM + 0.15 M H2O2): 70.6% | Large Simple Spots (>2 Cells) m = 5 (Drosophila melanogaster [6]; TAU 1 mM + 0.15 M H2O2): 0 clones per wing | Twin Spots m = 5 (Drosophila melanogaster [6]; TAU 1 mM + 0.15 M H2O2): 0 clones per wing | Small Single Spots (1–2 Cells) m = 2 (Drosophila melanogaster [6]; [9]): 0.125 (5) clones per wing | Total Spots m = 2 (Drosophila melanogaster [6]; [9]): 0.125 (5) clones per wing | Total Spots, statistical diagnosis (Kastenbaum-Bowman test) (Drosophila melanogaster [6]; TAU 1 mM + 0.15 M H2O2 vs positive control): * | IP (%) inhibition percentage (Drosophila melanogaster [6]; TAU 32 mM + 0.15 M H2O2): 38.1% | Twin Spots m = 5 (Drosophila melanogaster [6]; TAU 32 mM + 0.15 M H2O2): 0 clones per wing | Large Simple Spots (>2 Cells) m = 5 (Drosophila melanogaster [6]; [10]): 0.026 (1) clones per wing | Small Single Spots (1–2 Cells) m = 2 (Drosophila melanogaster [6]; [10]): 0.236 (9) clones per wing | Total Spots m = 2 (Drosophila melanogaster [6]; [10]): 0.263 (10) clones per wing | Total Spots, statistical diagnosis (Kastenbaum-Bowman test) (Drosophila melanogaster [6]; TAU 32 mM + 0.15 M H2O2 vs positive control): *

Source: publication PMC8069289 (Molecules, 2021)
